The assay addresses T1, recombinant human plasminogen activator inhibitor-1 (PAI-1) (Homo sapiens, UniProt P05121).
T1 construct: purchased Molecular Innovations, Royal Oak, Mich
The assay can be described thus: Primary screen for the PAI-1 inhibition (chromogenic tPA activity, Spectrozyme-tPA). It is filed as biochemical. The note with it: compound at 100 μM. As to the method: Test compounds are dissolved in DMSO at a final concentration of 10 mM, then diluted 100× in physiologic buffer. The inhibitory assay is initiated by the addition of the substituted oxadiazolidinedione (1–100 μM final concentration, maximun DMSO concentration of 0.2%) in a pH 6.6 buffer containing 140 nM recombinant human plasminogen activator inhibitor-1 (PAI-1; Molecular Innovations, Royal Oak, Mich.). Following a 1 hour incubation at room temperature, 70 nM of recombinant human tissue plasminogen activator (tPA) is added, and the combination of the substituted oxadiazolidinedione, PAI-1 and tPA is incubated for an additional 30 minutes. Following the second incubation, Spectrozyme-tPA (American Diagnostica, Greenwich, Conn.), a chromogenic substrate for tPA, is added and absorbance read at 405 nm at 0 and 60 minutes. Relative PAI-1 inhibition is equal to the residual tPA activity in the presence of the test compound and PAI-1. Control treatments include the complete inhibition of tPA by PAI-1 at the molar ratio employed (2:1), and the absence of any effect of the substituted oxadiazolidinedione on tPA alone.

T1 sequence (P05121 24-402): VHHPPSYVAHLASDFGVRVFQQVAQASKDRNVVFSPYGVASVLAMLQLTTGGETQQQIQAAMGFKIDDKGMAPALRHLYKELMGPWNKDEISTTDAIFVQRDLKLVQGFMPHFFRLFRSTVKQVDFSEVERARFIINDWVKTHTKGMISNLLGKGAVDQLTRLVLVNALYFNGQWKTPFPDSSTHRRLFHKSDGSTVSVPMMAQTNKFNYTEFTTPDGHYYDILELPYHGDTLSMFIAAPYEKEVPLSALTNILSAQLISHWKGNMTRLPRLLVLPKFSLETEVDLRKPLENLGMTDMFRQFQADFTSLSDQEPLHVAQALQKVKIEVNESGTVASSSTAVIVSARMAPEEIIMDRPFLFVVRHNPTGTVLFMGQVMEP

Turning to “2-({4′-[(3-bromobenzyl)oxy]-1,1′-biphenyl-3-yl}methyl)-1,2,4-oxadiazolidine-3,5-dione [Compound 52]”, the “% Inhibition @ 100 μM” value was 80%.
As for “2-({4′-[(4-bromobenzyl)oxy]-1,1′-biphenyl-3-yl}methyl)-1,2,4-oxadiazolidine-3,5-dione [Compound 50]”, the “% Inhibition @ 100 μM” value is 41%.
Still for that read-out and setting: in the case of “2-({4′-[(4-tert-butylbenzyl)oxy]-1,1′-biphenyl-3-yl}methyl)-1,2,4-oxadiazolidine-3,5-dione [Compound 48]” it was 23%.
Take “2-[(3′-{[3-(trifluoromethyl)benzyl]oxy}-1,1′-biphenyl-3-yl)methyl]-1,2,4-oxadiazolidine-3,5-dione [Compound 41]”: the “% Inhibition @ 100 μM” value was 81%.
Still for that read-out and setting: in the case of “2-[(3′-{[4-(trifluoromethyl)benzyl]oxy}-1,1′-biphenyl-3-yl)methyl]-1,2,4-oxadiazolidine-3,5-dione [Compound 37]” it was 3%; in that of “2-[(4′-{[3,5-bis(trifluoromethyl)benzyl]oxy}-1,1′-biphenyl-3-yl)methyl]-1,2,4-oxadiazolidine-3,5-dione [Compound 51]”, 65%; in that of “2-[(4′-{[4-(trifluoromethyl)benzyl]oxy}-1,1′-biphenyl-3-yl)methyl]-1,2,4-oxadiazolidine-3,5-dione [Compound 49]”, 28%.
On the same count and under the same terms, in the case of “2-{3-[3-(4-isobutylphenoxy)prop-1-ynyl]benzyl}-1,2,4-oxadiazolidine-3,5-dione [Compound 70]” it was 76%.
Turning to “2-{4-[3-(4-isobutylphenoxy)prop-1-ynyl]benzyl}-1,2,4-oxadiazolidine-3,5-dione [Compound 64]”, the “% Inhibition @ 100 μM” value is on record as 65%.
The same measure, in the same setting: in the case of “2-{[4-(phenylethynyl)thien-2-yl]methyl}-1,2,4-oxadiazolidine-3,5-dione [Compound 58]” it was 45%; in that of “2-{[5-(phenylethynyl)thien-2-yl]methyl}-1,2,4-oxadiazolidine-3,5-dione [Compound 59]”, 60%.
Take `C=CCn1cc(Cn2oc(=O)[nH]c2=O)c2cc(OCc3ccc(C(C)(C)C)cc3)ccc21` [Compound 2, 2-({1-allyl-5-[(4-tert-butylbenzyl)oxy]-1H-indol-3-yl}methyl)-1,2,4-oxadiazolidine-3,5-dione]: the inhibition at 100 µM is 100%.
Regarding `CCn1cc(Cn2oc(=O)[nH]c2=O)c2cc(OCc3ccc(C(C)(C)C)cc3)ccc21` [Compound 3, 2-({5-[(4-tert-butylbenzyl)oxy]-1-ethyl-1H-indol-3-yl}methyl)-1,2,4-oxadiazolidine-3,5-dione], the inhibition at 100 µM worked out at 9%.
The same measure, in the same setting: to `C=CCn1cc(Cn2oc(=O)[nH]c2=O)c2cc(OCc3ccc(C(F)(F)F)cc3)ccc21` [Compound 4, 2-[(1-allyl-5-{[4-(trifluoromethyl)benzyl]oxy}-1H-indol-3-yl)methyl]-1,2,4-oxadiazolidine-3,5-dione] belongs 96%; to `C=CCn1cc(Cn2oc(=O)[nH]c2=O)c2cc(OCc3cc(C(F)(F)F)cc(C(F)(F)F)c3)ccc21` [Compound 5, 2-[(1-allyl-5-{[3,5-bis(trifluoromethyl)benzyl]oxy}-1H-indol-3-yl)methyl]-1,2,4-oxadiazolidine-3,5-dione], 100%; to `CCn1cc(Cn2oc(=O)[nH]c2=O)c2cc(OCc3cc(C(F)(F)F)cc(C(F)(F)F)c3)ccc21` [Compound 6, 2-[(5-{[3,5-bis(trifluoromethyl)benzyl]oxy}-1-ethyl-1H-indol-3-yl)methyl]-1,2,4-oxadiazolidine-3,5-dione], 28%.
The same measure, in the same setting: to `O=c1[nH]c(=O)n(Cc2cn(Cc3ccccc3)c3ccc(OCc4cc(C(F)(F)F)cc(C(F)(F)F)c4)cc23)o1` [Compound 7, 2-[(1-benzyl-5-{[3,5-bis(trifluoromethyl)benzyl]oxy}-1H-indol-3-yl)methyl]-1,2,4-oxadiazolidine-3,5-dione] belongs 94%; to `O=c1[nH]c(=O)n(Cc2cn(Cc3ccccc3)c3ccc(OCc4cccc(Br)c4)cc23)o1` [Compound 8, 2-({1-benzyl-5-[(3-bromobenzyl)oxy]-1H-indol-3-yl}methyl)-1,2,4-oxadiazolidine-3,5-dione], 94%; to `Cc1cccc(COc2ccc3c(c2)c(Cn2oc(=O)[nH]c2=O)cn3Cc2ccccc2)c1` [Compound 11, 2-({1-benzyl-5-[(3-methylbenzyl)oxy]-1H-indol-3-yl}methyl)-1,2,4-oxadiazolidine-3,5-dione], 59%.
As for `C#CCn1cc(Cn2oc(=O)[nH]c2=O)c2cc(OCc3ccc(C(F)(F)F)cc3)ccc21` [Compound 12, 2-[(1-(2-propynyl)-5-{[4-(trifluoromethyl)benzyl]oxy}-1H-indol-3-yl)methyl]-1,2,4-oxadiazolidine-3,5-dione], the inhibition at 100 µM amounted to 100%.
Same read-out and setting: in the case of `O=c1[nH]c(=O)n(Cc2cn(Cc3ccccc3)c3ccc(OCc4ccc(C(F)(F)F)cc4)cc23)o1` [Compound 13, 2-[(1-benzyl-5-{[4-(trifluoromethyl)benzyl]oxy}-1H-indol-3-yl)methyl]-1,2,4-oxadiazolidine-3,5-dione] it was 100%; in that of `O=c1[nH]c(=O)n(Cc2cn(Cc3ccccc3)c3ccc(OCc4ccc(Br)cc4)cc23)o1` [Compound 14, 2-({1-benzyl-5-[(4-bromobenzyl)oxy]-1H-indol-3-yl}methyl)-1,2,4-oxadiazolidine-3,5-dione], 100%; in that of `C#CCn1cc(Cn2oc(=O)[nH]c2=O)c2cc(OCc3cc(C(F)(F)F)cc(C(F)(F)F)c3)ccc21` [Compound 15, 2-{[5-{[3,5-bis(trifluoromethyl)benzyl]oxy}-1-(2-propynyl)-1H-indol-3-yl]methyl}-1,2,4-oxadiazolidine-3,5-dione], 91%.
The same measure, in the same setting: to `C#CCn1cc(Cn2oc(=O)[nH]c2=O)c2cc(OCc3ccccc3Cl)ccc21` [Compound 17, 2-{[5-[(2-chlorobenzyl)oxy]-1-(2-propynyl)-1H-indol-3-yl]methyl}-1,2,4-oxadiazolidine-3,5-dione] belongs 49%; to `C#CCn1cc(Cn2oc(=O)[nH]c2=O)c2cc(OCc3ccc(Cl)c(Cl)c3)ccc21` [Compound 18, 2-{[5-[(3,4-dichlorobenzyl)oxy]-1-(2-propynyl)-1H-indol-3-yl]methyl}-1,2,4-oxadiazolidine-3,5-dione], 100%.
In the case of `O=c1[nH]c(=O)n(Cc2cn(Cc3ccccc3)c3ccc(OCc4ccc(Cl)c(Cl)c4)cc23)o1` [Compound 19, 2-({1-benzyl-5-[(3,4-dichlorobenzyl)oxy]-1H-indol-3-yl}methyl)-1,2,4-oxadiazolidine-3,5-dione], the inhibition at 100 µM came out at 79%.
On the same count and under the same terms, in the case of `C#CCn1cc(Cn2oc(=O)[nH]c2=O)c2cc(OCc3ccc4ccccc4c3)ccc21` [Compound 20, 2-{[5-(2-naphthylmethoxy)-1-(2-propynyl)-1H-indol-3-yl]methyl}-1,2,4-oxadiazolidine-3,5-dione] it was 84%.
For `C=CCn1cc(Cn2oc(=O)[nH]c2=O)c2cc(OCc3ccc4ccccc4c3)ccc21` [Compound 21, 2-{[1-allyl-5-(2-naphthylmethoxy)-1H-indol-3-yl]methyl}-1,2,4-oxadiazolidine-3,5-dione], the inhibition at 100 µM worked out at 98%.
Still for that read-out and setting: in the case of `O=c1[nH]c(=O)n(Cc2cn(Cc3ccccc3)c3ccc(OCc4ccc5ccccc5c4)cc23)o1` [Compound 22, 2-{[1-benzyl-5-(2-naphthylmethoxy)-1H-indol-3-yl]methyl}-1,2,4-oxadiazolidine-3,5-dione] it was 92%; in that of `C#CCn1cc(Cn2oc(=O)[nH]c2=O)c2cc(OCc3ccc(C(C)(C)C)cc3)ccc21` [Compound 23, 2-{[5-[(4-tert-butylbenzyl)oxy]-1-(2-propynyl)-1H-indol-3-yl]methyl}-1,2,4-oxadiazolidine-3,5-dione], 91%.
On to `C#CCn1cc(Cn2oc(=O)[nH]c2=O)c2cc(OCc3ccc(Br)cc3)ccc21` [Compound 24, 2-{[5-[(4-bromobenzyl)oxy]-1-(2-propynyl)-1H-indol-3-yl]methyl}-1,2,4-oxadiazolidine-3,5-dione], for which the inhibition at 100 µM came to 68%.
Same read-out and setting: in the case of `C=CCn1cc(Cn2oc(=O)[nH]c2=O)c2cc(OCc3ccc(Br)cc3)ccc21` [Compound 25, 2-({1-allyl-5-[(4-bromobenzyl)oxy]-1H-indol-3-yl}methyl)-1,2,4-oxadiazolidine-3,5-dione] it was 64%; in that of `C#CCn1cc(Cn2oc(=O)[nH]c2=O)c2cc(OCc3cccc(Br)c3)ccc21` [Compound 26, 2-{[5-[(3-bromobenzyl)oxy]-1-(2-propynyl)-1H-indol-3-yl]methyl}-1,2,4-oxadiazolidine-3,5-dione], 100%; in that of `C=CCn1cc(Cn2oc(=O)[nH]c2=O)c2cc(OCc3cccc(Br)c3)ccc21` [Compound 27, 2-({1-allyl-5-[(3-bromobenzyl)oxy]-1H-indol-3-yl}methyl)-1,2,4-oxadiazolidine-3,5-dione], 100%.
For `C#CCn1cc(Cn2oc(=O)[nH]c2=O)c2cc(OCc3cccc(Cl)c3)ccc21` [Compound 28, 2-{[5-[(3-chlorobenzyl)oxy]-1-(2-propynyl)-1H-indol-3-yl]methyl}-1,2,4-oxadiazolidine-3,5-dione], the inhibition at 100 µM came to 48%.

One may read the inhibition as how much of the control response was suppressed.

The values are drawn from patent US7141592B2, “Substituted oxadiazolidinediones” (Wyeth, priority 2003, dated 2006).
